In US20070032529A1, “Pyrazole compounds and their use as antidiabetes agents” (Japan Tobacco Inc., priority 2005, published 2007):

What follows are compounds tested against T1, recombinant human liver glycogen phosphorylase (Homo sapiens, UniProt P06737) (assay: Measuring liver glycogen phosphorylase activity (forward reaction system, NADPH absorbance at 340 nm)). Conditions: compound concentration 100 nmol (in parentheses); read-out: inhibition rate (%) at a certain concentration.
T1 construct: made in house; host or cells: Sf9 insect cells (crude homogenate, diluted, used as the enzyme solution)
T1 sequence (P06737 1-847): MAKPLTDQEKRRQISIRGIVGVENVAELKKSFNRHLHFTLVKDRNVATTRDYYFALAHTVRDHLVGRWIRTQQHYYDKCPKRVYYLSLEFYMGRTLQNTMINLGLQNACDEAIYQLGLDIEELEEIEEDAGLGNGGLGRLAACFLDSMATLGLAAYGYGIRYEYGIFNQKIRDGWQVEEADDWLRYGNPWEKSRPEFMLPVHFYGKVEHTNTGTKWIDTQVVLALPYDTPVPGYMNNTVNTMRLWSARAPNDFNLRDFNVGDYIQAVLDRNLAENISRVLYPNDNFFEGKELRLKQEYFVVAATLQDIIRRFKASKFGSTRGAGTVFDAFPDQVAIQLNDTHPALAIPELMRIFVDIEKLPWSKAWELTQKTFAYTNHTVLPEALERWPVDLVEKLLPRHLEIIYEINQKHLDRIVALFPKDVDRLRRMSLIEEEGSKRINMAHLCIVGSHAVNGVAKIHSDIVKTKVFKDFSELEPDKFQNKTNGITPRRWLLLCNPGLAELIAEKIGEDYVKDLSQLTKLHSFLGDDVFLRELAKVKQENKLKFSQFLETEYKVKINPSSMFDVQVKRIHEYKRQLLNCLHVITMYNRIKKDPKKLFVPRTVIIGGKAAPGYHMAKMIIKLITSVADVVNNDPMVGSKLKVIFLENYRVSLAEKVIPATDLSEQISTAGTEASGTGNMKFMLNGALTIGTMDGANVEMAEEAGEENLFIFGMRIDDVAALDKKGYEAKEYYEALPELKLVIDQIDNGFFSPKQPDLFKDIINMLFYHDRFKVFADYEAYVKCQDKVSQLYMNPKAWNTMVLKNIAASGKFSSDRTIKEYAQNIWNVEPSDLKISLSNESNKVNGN
Assay type: biochemical
In short: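 Sf9 homogenate expressing the enzyme, in pH 6.8 BES/EDTA, with glycogen and phosphate substrate plus glucose, coupled via phosphoglucomutase/G6PDH to NADPH formation. A340 change over 75 min at room temperature, blank-corrected; IC50 linearly interpolated between the two concentrations bracketing 50% inhibition versus 1% DMSO control.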

Compound | inhibition at 0.1 µM
CC(NC(=O)c1cc(NC(=O)c2cc(F)c(F)cc2Cl)[nH]n1)c1cccnc1 (stereo not shown) [Example 2-26] | 36.4%
O=C(NCc1cccc(-c2ccccc2)c1)c1cc(NC(=O)c2cc(F)c(F)cc2Cl)[nH]n1 [Example 2-29] | 45.8%
O=C(Nc1cccc2cccnc12)c1cc(NC(=O)c2cc(F)c(F)cc2Cl)[nH]n1 [Example 1-146] | 11.3%
O=C(Nc1cnccn1)c1cc(NC(=O)c2cc(F)c(F)cc2Cl)[nH]n1 [Example 1-144] | 5%

Same assay, conditions: compound concentration 300 nmol (in parentheses); read-out: inhibition rate (%) at a certain concentration

Compound | inhibition at 0.3 µM
COc1ccc(F)cc1C(=O)Nc1cc(C(=O)NCc2ccccc2)n[nH]1 [Example 4-16] | 5.1%
Cc1ccc(C)c(C(=O)Nc2cc(C(=O)NCc3ccccc3)n[nH]2)c1 [Example 4-35] | 9.7%
COc1ccc(C(=O)Nc2cc(C(=O)NCc3ccccc3)n[nH]2)c(C)c1 [Example 4-14] | 10.6%
O=C(NCc1ccccc1)c1cc(NC(=O)c2ccc(Cl)nc2Cl)[nH]n1 [Example 4-39] | 5.3%
CCCCN(C(=O)c1cc(NC(=O)c2cc(F)c(F)cc2Cl)[nH]n1)C1CC[S+]([O-])CC1 (stereo not shown) [Example 1-115] | 39.7%
Cc1ncccc1C(=O)Nc1cc(C(=O)NCc2ccccc2)n[nH]1 [Example 4-42] | 8.5%

Same assay, conditions: compound concentration 1000 nmol (in parentheses); read-out: inhibition rate (%) at a certain concentration

Compound | inhibition at 1 µM
COC(=O)c1ccc(N(C)C(=O)c2cc(NC(=O)c3cc(F)c(F)cc3Cl)[nH]n2)cc1 [Example 4-1, methyl 5-(2-chloro-4,5-difluorobenzoylamino)-1H-pyrazole-3-carbocylic acid (4-methoxycarbonyl-phenyl)-methyl-amide] | 13.8%

Same assay, conditions: enzyme inhibitory activity with respect to liver glycogen phosphorylase; class symbols

Compound | IC50
COCCN(C(=O)c1cc(NC(=O)c2cc(F)c(F)cc2Cl)[nH]n1)C1CCOCC1 [Example 1-97] | < 100 nM
Cc1nc(C)c(CNC(=O)c2cc(NC(=O)c3cc(F)c(F)cc3Cl)[nH]n2)o1 [Example 1-2-2, 5-(2-chloro-4,5-difluoro-benzoylamino)-1H-pyrazole-3-carboxylic acid (2,4-dimethyl-oxazol-5-ylmethyl)-amide p-toluenesulfonate] | < 100 nM
CCCCCN(C(=O)c1cc(NC(=O)c2cc(F)c(F)cc2Cl)[nH]n1)c1ccccc1 [Example 3-18] | 100 to 300 nM
O=C(O)COc1ccccc1CNC(=O)c1cc(NC(=O)c2cc(F)c(F)cc2Cl)[nH]n1 [Example 3-48] | < 100 nM
COc1cc(CNC(=O)c2cc(NC(=O)c3cc(F)c(F)cc3Cl)[nH]n2)cc(OC)c1 [Example 1-16] | < 100 nM
O=C(NCc1ccc(-c2csnn2)cc1)c1cc(NC(=O)c2cc(F)c(F)cc2Cl)[nH]n1 [Example 1-142] | < 100 nM
CC(C)(C)c1ccc(CNC(=O)c2cc(NC(=O)c3cc(F)c(F)cc3Cl)[nH]n2)cc1 [Example 1-30] | < 100 nM
O=C(NCc1cccc(Cl)c1)c1cc(NC(=O)c2cc(F)c(F)cc2Cl)[nH]n1 [Example 3-37] | < 100 nM
COc1ccsc1CNC(=O)c1cc(NC(=O)c2cc(F)c(F)cc2Cl)[nH]n1 [Example 1-160] | < 100 nM
COC(=O)CNC(=O)c1ccc(CNC(=O)c2cc(NC(=O)c3cc(F)c(F)cc3Cl)[nH]n2)cc1 [Example 1-43] | < 100 nM
O=C(NCc1ccc(Cl)s1)c1cc(NC(=O)c2cc(F)c(F)cc2Cl)[nH]n1 [Example 1-156] | < 100 nM
O=C(NCc1cc(F)cc(F)c1)c1cc(NC(=O)c2cc(F)c(F)cc2Cl)[nH]n1 [Example 1-23] | < 100 nM
O=C(NCc1cccnc1)c1cc(NC(=O)c2cc(F)c(F)cc2Cl)[nH]n1 [Example 1-1, 5-(2-chloro-4,5-difluoro-benzoylamino)-1H-pyrazole-3-carboxylic acid (pyridin-3-ylmethyl)-amide] | < 100 nM
O=C(O)CCCN(C(=O)c1cc(NC(=O)c2cc(F)c(F)cc2Cl)[nH]n1)c1ccccc1 [Example 4-28] | 100 to 300 nM
O=C(NCc1c(F)cccc1Cl)c1cc(NC(=O)c2cc(F)c(F)cc2Cl)[nH]n1 [Example 1-36] | < 100 nM
CCN(CC)C(=O)c1ccc(CNC(=O)c2cc(NC(=O)c3cc(F)c(F)cc3Cl)[nH]n2)cc1 [Example 1-118] | < 100 nM
COc1cscc1CNC(=O)c1cc(NC(=O)c2cc(F)c(F)cc2Cl)[nH]n1 [Example 1-164] | < 100 nM
O=C(NCc1ccccc1)c1cc(NC(=O)c2cc(F)ccc2Cl)[nH]n1 [Example 4-8] | 100 to 300 nM
CCCCN(C(=O)c1cc(NC(=O)c2cc(F)c(F)cc2Cl)[nH]n1)C1CCN(C(C)=O)CC1 [Example 1-110] | < 100 nM
CN(C)c1cccc(CNC(=O)c2cc(NC(=O)c3cc(F)c(F)cc3Cl)[nH]n2)c1 [Example 3-34] | < 100 nM
CC(=O)OCCN(CCO)CCNC(=O)c1ccc(CNC(=O)c2cc(NC(=O)c3cc(F)c(F)cc3Cl)[nH]n2)cc1 [Example 1-49] | < 100 nM
CCOC(=O)CCCN(C(=O)c1cc(NC(=O)c2cc(F)c(F)cc2Cl)[nH]n1)c1ccccc1 [Example 4-26] | < 100 nM

Same assay, conditions: figure in brackets (100); read-out: IC50: % value given with (100)

Compound | inhibition at 0.1 µM
COC(=S)ON=C(N)c1ccc(N(C)C(=O)c2cc(NC(=O)c3cc(F)c(F)cc3Cl)[nH]n2)cc1 [Example 6-14] | 20.1%
CCOC1(C)Nc2ccccc2CN1C(=O)c1cc(NC(=O)c2cc(F)c(F)cc2Cl)[nH]n1 (stereo not shown) [Example 6-47] | 41.1%
O=C(NC1CCc2ccccc21)c1cc(NC(=O)c2cc(F)c(F)cc2Cl)[nH]n1 (stereo not shown) [Example 6-41] | 12.3%

Same assay, conditions: figure in brackets (300); read-out: IC50 column: % value printed with (300)

Compound | inhibition at 0.3 µM
CN(C(=O)c1cc(NC(=O)c2cc(F)c(Cl)cc2Cl)[nH]n1)c1ccc(C(N)=O)cc1 [Example 6-2] | 12.3%

Same assay, conditions: human liver glycogen phosphorylase; class symbol

Compound | IC50
O=C(Nc1cc(C(=O)N2C=Nc3ccc(F)cc3C2)n[nH]1)c1cc(F)c(F)cc1Cl [Example 6-46] | < 100 nM
CN(C(=O)c1cc(NC(=O)c2cc(F)c(N=[N+]=[N-])cc2Cl)[nH]n1)c1ccc(-c2nnn[nH]2)cc1 [Example 6-10] | 100 to 300 nM
CC(=Nc1ccc(CNC(=O)c2cc(NC(=O)c3cc(F)c(F)cc3Cl)[nH]n2)cc1)N(C)C [Example 6-26] | < 100 nM
CCN(C=Nc1ccccc1CNC(=O)c1cc(NC(=O)c2cc(F)c(F)cc2Cl)[nH]n1)CC [Example 6-27] | < 100 nM
CC(=Nc1cccc(CNC(=O)c2cc(NC(=O)c3cc(F)c(F)cc3Cl)[nH]n2)c1)N(C)C [Example 6-25] | < 100 nM

These compounds were tested on db/db mice (assay: Measuring blood plasma glucose concentration in db/db mice (hypoglycemic effect)). Conditions: db/db mice fasted 4 h, oral administration, plasma glucose 1 and 3 hours after administration, dose 10 mg/kg or less, Dunnett test vs solvent.
Assay type: in vivo
Parameters: key: ++: compounds exhibiting statistically significant hypoglycemic effect at a dose of 10 mg/kg or less; +: compounds exhibiting not significant but obvious hypoglycemic effect at a dose of 10 mg/kg
Description: 2. Exemplary Test (2) Method for Measuring Blood Plasma Glucose Concentration
Using db/db mice representing an obesity type of diabetic model were used to examine the effect of compound (1) of the present invention on glucose concentrations in plasma. Plasma glucose concentrations of the db/db mice (9-18 weeks old) were measured, and the mice were divided into groups each of 5 or 8 mice such that there would be no difference in the average value of plasma glucose concentrations. After fasting for four hours, the example compound or the solvent (0.5% methylcellulose) was administered orally to the db/db mice, and plasma glucose concentrations were measured 1 and 3 hours after administration. The analysis of the hypoglycemic effect of the example compound was performed through a statistical test at every hour between the group receiving the solvent and the groups of example compound (Dunnett test).

Compound | vivo (hypoglycemic effect in db/db mice)
Cc1noc(C)c1CNC(=O)c1cc(NC(=O)c2cc(F)c(F)cc2Cl)[nH]n1.Cl [Example 5-8] | +
O=C(NCc1ccc(N2CCS(=O)(=O)CC2)nc1)c1cc(NC(=O)c2cc(F)c(F)cc2Cl)[nH]n1 [Example 5-44] | +
CN(C)c1ccc(CNC(=O)c2cc(NC(=O)c3cc(F)c(F)cc3Cl)[nH]n2)cc1.Cl [Example 3-29] | +
Cc1nn(C)c(C)c1CNC(=O)c1cc(NC(=O)c2cc(F)c(F)cc2Cl)[nH]n1 [Example 5-9] | +
O=C(NCc1cnccn1)c1cc(NC(=O)c2cc(F)c(F)cc2Cl)[nH]n1 [Example 5-42] | +
O=C(NCc1ccc(N2CCSCC2)nc1)c1cc(NC(=O)c2cc(F)c(F)cc2Cl)[nH]n1 [Example 5-43] | +
CN(C(=O)c1cc(NC(=O)c2cc(F)c(F)cc2Cl)[nH]n1)c1ccc(C(=O)[O-])cc1.[Na+] [Example 4-2-1, 4-{[5-(2-chloro-4,5-difluoro-benzoylamino)-1H-pyrazole-3-carbonyl]-methyl-amino}-benzoic acid sodium salt] | ++
